One assay concerns MCP-1. Description: In vitro chemotaxis (trans-well migration) v MCP-1. It is filed as cell-based, human. Put shortly: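 Trans-well migration toward IL-8 or MCP-1 placed below, with agent added to THP-1 cells (10^4-10^6) in the top well and incubation at 37° C (e.g. 4 hours). MTT absorbance at 595 nm, interpolated on a cell standard curve, gives migrated cell numbers; TGFβ-type negative control and cytotoxicity check included.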

The test system of the next assay is IL-8. Description: In vitro chemotaxis, inhibition v IL-8. It is filed as cell-based, human. On the set-up: concentration or dose not given beside the values. As to the method: To determine whether an agent inhibits a chemokine-induced activity, such as macrophage recruitment, varying amounts of the agent are mixed with cells in the presence of a known chemoattractant. For example, a range of known concentrations of an agent, e.g., a chemokine peptide, is incubated with a defined number (e.g., 10^4-10^6) of human THP-1 monocyte cells in individual wells of the top compartment of a trans-well plate. Chemokine, at a concentration known to cause significant migration of THP-1 cells in the trans-well migration assay, is placed in the lower compartment of a trans-well plate. Cells are then incubated at 37° C. for a period sufficient to allow migration, e.g., 4 hours. After incubation, the cells are gently removed from the top of the filter with a pipette, 20 μl of 20 mM EDTA in simple PBS is added into each top well, and incubated for 20 minutes at 4° C. The filter is carefully flushed with media using a gentle flow, and removed. A standard curve consisting of a two-fold dilution series of THP-1 cells (in 29 μl) is placed to accurately quantify the number of cells that have migrated. Migrated cells are stained with 3 μl of MTT stock dye solution which is added directly into each well (5 mg/ml in RPMI-1640 without phenol red) (Sigma Chemical Co., St. Louis, Mo., USA) and incubated at 37° C. for 4 hours. The media is carefully aspirated from each well, and the converted dye is solubilized by 20 μl of DMSO. Absorbance of converted dye is measured at a wavelength of 595 nm using an ELISA plate reader. The number of migrated cells in each well is then determined by interpolation of the standard curve (see also Imai et al., J. Biol. Chem., 272:15036, 1997). Any method suitable for counting cells can be used, for example, counting with a hemocytometer, incubation of the cells with MTT (see above), or FACS analysis. A negative control assay is also performed, using TGFβ or another non-chemokine chemoattractant (e.g., IL1β or TNFα). To assess whether the agent is cytotoxic, the same concentrations of agent are incubated with THP-1 cells. Agents which 1) are not cytotoxic at levels which inhibit migration, 2) are ineffective at inhibiting the negative control-induced migration, and 3) reduce or inhibit chemokine-induced THP-1 migration, are agents which fall within the scope of the invention.

Bridge positions count the residues as written; N and C are the ends. Square brackets hold non-standard residues; d marks the D form. Peptide text beside a SMILES is read from it. Dap = NC[C@H](N)C(=O)O A value given as a limit tells only on which side of the number the result lay.

Regarding `CC[C@H](C)[C@@H]1NC(=O)[C@H](Cc2c[nH]c3ccccc23)NC(=O)[C@H](CCCCN)NC(=O)[C@H](CCC(N)=O)NC(=O)[C@@H](CCCCN)NC(=O)[C@@H]2CCCN2C(=O)[C@H](CC(=O)O)NC(=O)[C@H](CC(C)C)NC(=O)[C@@H](NC(C)=O)CSSC[C@@H](C(N)=O)NC(=O)[C@H](CCC(N)=O)NC1=O` [Example 29, Ac-c(Cys-Leu-Asp-Pro-D-Lys-Gln-Lys-Trp-Ile-Gln-Cys)-NH2] (Ac-CLDP[dK]QKWIQC-NH2; disulfide 1-11), the 50% effective concentration (EC50) in the assay on MCP-1 came out at 0.03 µM. For the same molecule, the “v IL-8 inhibition (%)” value in the assay on IL-8 came to 92.0%.

Turning to `CC[C@H](C)[C@@H]1NC(=O)[C@H](Cc2c[nH]c3ccccc23)NC(=O)[C@H](CCCCN)NC(=O)[C@H](CCC(N)=O)NC(=O)[C@H](CCCCN)NC(=O)[C@@H]2CCCN2C(=O)[C@@H](CC(=O)O)NC(=O)[C@H](CC(C)C)NC(=O)[C@@H](NC(C)=O)CSSC[C@@H](C(N)=O)NC(=O)[C@H](CCC(N)=O)NC1=O` [Example 31, Ac-c(Cys-Leu-D-Asp-Pro-Lys-Gln-Lys-Trp-Ile-Gln-Cys)-NH2] (Ac-CL[dD]PKQKWIQC-NH2; disulfide 1-11), the EC50 in the assay with MCP-1 turned out to be 0.05 µM. Moreover, the “v IL-8 inhibition (%)” value in the assay on IL-8 is listed as 95.8%.

With `CC[C@H](C)[C@@H]1NC(=O)[C@H](Cc2c[nH]c3ccccc23)NC(=O)[C@H](CCCCN)NC(=O)[C@H](CCC(N)=O)NC(=O)[C@H](CCCCN)NC(=O)[C@@H]2CCCN2C(=O)[C@H](CC(=O)O)NC(=O)[C@@H](CC(C)C)NC(=O)[C@@H](NC(C)=O)CSSC[C@@H](C(N)=O)NC(=O)[C@H](CCC(N)=O)NC1=O` [Example 32, Ac-c(Cys-D-Leu-Asp-Pro-Lys-Gln-Lys-Trp-Ile-Gln-Cys)-NH2] (Ac-C[dL]DPKQKWIQC-NH2; disulfide 1-11), the EC50 in the assay on MCP-1 is more than 1 µM. For the same molecule, the “v IL-8 inhibition (%)” value with IL-8 came to 8.7%.

Regarding `CC[C@H](C)[C@@H]1NC(=O)[C@H](Cc2c[nH]c3ccccc23)NC(=O)[C@H](CCCCN)NC(=O)[C@H](CCC(N)=O)NC(=O)[C@H](CCCCN)NC(=O)[C@@H]2CCCN2C(=O)[C@H](CC(=O)O)NC(=O)[C@H](CC(C)C)NC(=O)[C@@H](NC(=O)[C@H](CCCCN)NC(C)=O)CSSC[C@@H](C(N)=O)NC(=O)[C@H](CCC(N)=O)NC1=O` [Example 34, Ac-Lys-c(Cys-Leu-Asp-Pro-Lys-Gln-Lys-Trp-Ile-Gln-Cys)-NH2] (Ac-KCLDPKQKWIQC-NH2; disulfide 2-12), the response with MCP-1 was half-maximal at 0.25 µM (EC50). The “v IL-8 inhibition (%)” value in the assay on IL-8 turned out to be 75.7%.

`CC[C@H](C)[C@@H]1NC(=O)[C@H](Cc2c[nH]c3ccccc23)NC(=O)[C@H](CCCCN)NC(=O)[C@H](CCC(N)=O)NC(=O)[C@H](CCCCN)NC(=O)[C@@H]2CCCN2C(=O)[C@H](CC(=O)O)NC(=O)[C@H](CC(C)C)NC(=O)[C@H](N)CSSC[C@@H](C(=O)N[C@@H](CN)C(N)=O)NC(=O)[C@H](CCC(N)=O)NC1=O` [Example 35, c(D-Cys-Leu-Asp-Pro-Lys-Gln-Lys-Trp-Ile-Gln-Cys)-Dap-NH2] (H-[dC]LDPKQKWIQC[Dap]-NH2; disulfide 1-11) yielded a concentration giving a half-maximal response (EC50) in the assay on MCP-1 of 0.05 µM. Moreover, the “v IL-8 inhibition (%)” value in the assay with IL-8 is 91.9%.

`CC[C@H](C)[C@@H]1NC(=O)[C@H](Cc2c[nH]c3ccccc23)NC(=O)[C@H](CCCCN)NC(=O)[C@H](CCC(N)=O)NC(=O)[C@H](CCCCN)NC(=O)[C@@H]2CCCN2C(=O)[C@H](CC(=O)O)NC(=O)[C@H](CC(C)C)NC(=O)[C@@H](N)CSSC[C@H](C(N)=O)NC(=O)[C@H](CCC(N)=O)NC1=O` [Example 36, c(Cys-Leu-Asp-Pro-Lys-Gln-Lys-Trp-Ile-Gln-D-Cys)-NH2] (H-CLDPKQKWIQ[dC]-NH2; disulfide 1-11): the concentration for a half-maximal effect (EC50) in the assay with MCP-1 stood at 0.6 µM. Also, the “v IL-8 inhibition (%)” value in the assay with IL-8 stood at 21.8%.

In turn, `CC[C@H](C)[C@@H]1NC(=O)[C@H](Cc2c[nH]c3ccccc23)NC(=O)[C@H](CCCCN)NC(=O)[C@H](CCC(N)=O)NC(=O)[C@H](CCCCN)NC(=O)[C@@H]2CCCN2C(=O)[C@H](CC(=O)O)NC(=O)[C@H](CC(C)C)NC(=O)[C@H](N)CSSC[C@H](C(N)=O)NC(=O)[C@H](CCC(N)=O)NC1=O` [Example 37, c(D-Cys-Leu-Asp-Pro-Lys-Gln-Lys-Trp-Ile-Gln-D-Cys)-NH2] (H-[dC]LDPKQKWIQ[dC]-NH2; disulfide 1-11) gave a half-maximal effective concentration (EC50) in the assay with MCP-1 of more than 1 µM. Besides, the “v IL-8 inhibition (%)” value with IL-8 is −14.7%.

In turn, `CC[C@H](C)[C@@H]1NC(=O)[C@H](Cc2c[nH]c3ccccc23)NC(=O)[C@H](CCCCN)NC(=O)[C@H](CCC(N)=O)NC(=O)[C@H](CCCCN)NC(=O)[C@@H](NC(=O)[C@@H]2CCCN2C(=O)[C@H](CC(=O)O)NC(=O)[C@@H](N)CC(C)C)CSSC[C@@H](C(N)=O)NC(=O)[C@H](CCC(N)=O)NC1=O` [Example 38, Leu-Asp-Pro-c(Cys-Lys-Gln-Lys-Trp-Ile-Gln-Cys)-NH2] (H-LDPCKQKWIQC-NH2; disulfide 4-11) gave an EC50 in the assay on MCP-1 of more than 1 µM. For the same molecule, in the assay on IL-8, the “v IL-8 inhibition (%)” value is given as −12%.

`CC[C@H](C)[C@@H]1NC(=O)[C@H](Cc2c[nH]c3ccccc23)NC(=O)[C@H](CCCCN)NC(=O)[C@H](CCC(N)=O)NC(=O)[C@H](CCCCN)NC(=O)[C@@H]2CCCN2C(=O)[C@H](CC(=O)O)NC(=O)[C@H](CC(C)C)NC(=O)[C@H](N)CSSC[C@@H](C(N)=O)NC(=O)[C@H](CCC(N)=O)NC1=O` [Example 39, c(D-Cys-Leu-Asp-Pro-Lys-Gln-Lys-Trp-Ile-Gln-Cys)-NH2] (H-[dC]LDPKQKWIQC-NH2; disulfide 1-11) yielded an EC50 in the assay with MCP-1 of more than 1 µM. Besides, the “v IL-8 inhibition (%)” value with IL-8 came to 3.8%.

As for `CC[C@H](C)[C@@H]1NC(=O)[C@H](Cc2c[nH]c3ccccc23)NC(=O)[C@H](CCCCN)NC(=O)[C@H](CCC(N)=O)NC(=O)[C@H](CCCCN)NC(=O)[C@@H](NC(=O)[C@@H]2CCCN2C(=O)[C@@H](N)CC(=O)O)CSSC[C@@H](C(N)=O)NC(=O)[C@H](CCC(N)=O)NC1=O` [Example 40, Asp-Pro-c(Cys-Lys-Gln-Lys-Trp-Ile-Gln-Cys)-NH2] (H-DPCKQKWIQC-NH2; disulfide 3-10), in the assay on MCP-1, the 50% effective concentration (EC50) is 0.007 µM. The “v IL-8 inhibition (%)” value in the assay with IL-8 worked out at 113.5%.

As for `CC[C@H](C)[C@@H]1NC(=O)[C@H](Cc2c[nH]c3ccccc23)NC(=O)[C@H](CCCCN)NC(=O)[C@H](CCC(N)=O)NC(=O)[C@@H](NC(=O)[C@H](CCCCN)NC(=O)[C@@H]2CCCN2C(=O)[C@@H](N)CC(=O)O)CSSC[C@@H](C(N)=O)NC(=O)[C@H](CCC(N)=O)NC1=O` [Example 41, Asp-Pro-Lys-c(Cys-Gln-Lys-Trp-Ile-Gln-Cys)-NH2] (H-DPKCQKWIQC-NH2; disulfide 4-10), the EC50 with MCP-1 came to 0.08 µM. The “v IL-8 inhibition (%)” value with IL-8 came to 67.8%.

In turn, `CC[C@H](C)[C@@H]1NC(=O)[C@H](Cc2c[nH]c3ccccc23)NC(=O)[C@H](CCCCN)NC(=O)[C@H](CCC(N)=O)NC(=O)[C@H](CCCCN)NC(=O)[C@@H]2CCCN2C(=O)[C@H](CC(=O)O)NC(=O)[C@@H](N)CSSC[C@@H](C(N)=O)NC(=O)[C@H](CCC(N)=O)NC1=O` [Example 42, c(Cys-Asp-Pro-Lys-Gln-Lys-Trp-Ile-Gln-Cys)-NH2] (H-CDPKQKWIQC-NH2; disulfide 1-10) returned an EC50 with MCP-1 of 0.025 µM. In addition, the “v IL-8 inhibition (%)” value in the assay on IL-8 was 94.4%.

For `CC[C@H](C)[C@@H]1NC(=O)[C@H](Cc2c[nH]c3ccccc23)NC(=O)[C@H](CCCCN)NC(=O)[C@H](CCC(N)=O)NC(=O)[C@H](CCCCN)NC(=O)[C@@H](NC(=O)[C@@H]2CCCN2)CSSC[C@@H](C(N)=O)NC(=O)[C@H](CCC(N)=O)NC1=O` [Example 43, Pro-c(Cys-Lys-Gln-Lys-Trp-Ile-Gln-Cys)-NH2] (H-PCKQKWIQC-NH2; disulfide 2-9), the concentration giving a half-maximal response (EC50) with MCP-1 came to 0.6 µM. Moreover, the “v IL-8 inhibition (%)” value in the assay on IL-8 is 21.9%.
